The source of these data is patent US20260001898A1, “Heteroaryl compounds as inhibitors of TYK2/JAK1, composition and application thereof” (Accro Bioscience (HK) Limited, priority 2022, published 2026).

Common to all, as to format: cell-based
One assay has as its system JAK1/JAK2 pathway. In words: Western blot p-STAT1/STAT1 in IFN-γ-stimulated HT-29 cells. Conditions: IFN-γ 100 ng/mL. How it is done: HT-29 cells were digested by trypsin and suspended in Dulbecco's Modified Eagle Medium (DMEM) and counted. The tested compounds were added into the 6 well plates (400 000/per well). After 2 hours, IFN-γ (100 ng/mL) was added to stimulate cells for 30 minutes. The cells were collected and lysed with protein lysate. The protein was quantitatively tested by BCA kit. Finally, p-STAT1/STAT1 and internal reference protein β-actin were detected by Western blot.
A general note: In western blotting, separated proteins are transferred to a membrane and probed.

Assay [1] concerns IFNα induced TYK2/JAK1 mediated STAT activation. The experiment in a line: Luciferase assay in L929 ISRE cells stimulated with IFN-α. Conditions: Mus musculus, IFN-α 100 ng/mL; for inhibition at 0.05 µM: 50 nM compound, read-out: Inhibitory activity % (50 nM); for inhibition at 0.2 µM: 200 nM compound, read-out: Inhibitory activity % (200 nM); for inhibition at 1 µM: 1000 nM compound, read-out: Inhibitory activity % (1000 nM). The procedure: • 1. L929 ISRE cells (5000 cells/well) were seeded on 96-well plates and incubated overnight at room temperature-; • 2. The cells were pretreated by adding different concentrations (10 nM, 50 nM, 100 nM, 200 nM or 1000 nM) of the test compounds for 2 hours; • 3. Added IFN-α (100 ng/mL) to stimulate cells for 6 hours; • 4. Removed the upper medium, add PBS (100 μL) and washed, then removed PBS; • 5. Added PLB lysis solution (50 μL) to each well, shook the well for 15 minutes; • 6. Transferred PLB lysis solution (30 μL) to a new 96-well whiteboard, added LAR II reagent (LAR II), then quickly read the 450 nm OD value with a plate washer; • 7. Added Stop & Glo reagent (30 μL), then read the 450 nm OD value using the plate washer. • 8. The final result was the OD value in step 6/OD value in step 7.

Another assay deals with JAK2/JAK2 pathway. The experiment in a line: Western blot p-STAT3/STAT3 in TPO-stimulated HEL cells. Conditions: TPO 100 ng/mL. How it is done: HEL cells were digested by trypsin, re-suspended in 1640 medium and counted. The compounds to be measured were added to 6 well plates (1 million/per well) for 2 hours, and then thrombopoietin (TPO)(final concentration: 100 ng/mL) was added to stimulate cells for 30 minutes. The cells were collected and lysed with protein lysate. The protein was quantitatively tested by bicinchoninic acid (BCA) kit. Finally, p-STAT3/STAT3 and internal reference protein β-actin were detected by Western blot.

With `COc1c(Nc2cc(NC(=O)C3CC3)ncc2C(N)=O)cccc1-c1cc(P(=O)(C2CC2)C2CC2)n(C)n1` [Compound A2, 6-(cyclopropanecarboxamido)-4-((3-(5-(dicyclopropylphosphoryl)-1-methyl-1H-pyrazol-3-yl)-2-methoxyphenyl)amino)nicotinamide], the “effect on downstream STAT1 phosphorylation induced by IFN-γ (JAK1/JAK2 pathway)” value in the assay on JAK1/JAK2 pathway was “inhibited JAK1/JAK2 pathway in a concentration-dependent manner”. In assay [1], the inhibition at 0.05 µM came out at 26%, the inhibition at 0.2 µM was 57% and the inhibition at 1 µM came out at 94%.

Regarding `CCn1ccc(Nc2cc(Nc3cccc(-c4cc(P(=O)(C5CC5)C5CC5)n(C)n4)c3OC)c(C(N)=O)nn2)n1` [Compound A42], in assay [1], the inhibition at 0.05 µM was 76%, the inhibition at 0.2 µM worked out at 90% and the inhibition at 1 µM was 92%.

On to `COc1c(Nc2cc(Nc3ncccc3C#N)nnc2C(N)=O)cccc1-c1cc(P(=O)(C2CC2)C2CC2)n(C)n1` [Compound A43], for which, in assay [1], the inhibition at 0.05 µM was 0%, the inhibition at 0.2 µM was determined as 18% and the inhibition at 1 µM came to 64%.

Consider `COc1c(Nc2cc(NC(=O)C3C[C@H]3F)nnc2C(N)=O)cccc1-c1cc(P(=O)(C2CC2)C2CC2)n(C)n1` (stereo partly shown) [Compound A47], for which, in assay [1], the inhibition at 0.05 µM is 8%, the inhibition at 0.2 µM stood at 19% and the inhibition at 1 µM is 62%.

As to `COc1c(Nc2cc(NC(=O)C3CC3)nnc2C(N)=O)cccc1-c1cc(P(=O)(C2CC2)C2CC2)[nH]n1` [Compound A48, 6-(cyclopropanecarboxamido)-4-((3-(5-(dicyclopropylphosphoryl)-1H-pyrazol-3-yl)-2-methoxyphenyl)amino)pyridazine-3-carboxamide], in assay [1], the inhibition at 0.05 µM was 17%, the inhibition at 0.2 µM was 56% and the inhibition at 1 µM is 76%.

Turning to `COc1c(Nc2cc(Nc3cc(C)ccn3)nnc2C(N)=O)cc(F)cc1-c1cc(P(C)(C)=O)n(C)n1` [Compound A51, 4-((3-(5-(dimethylphosphoryl)-1-methyl-1H-pyrazol-3-yl)-5-fluoro-2-methoxyphenyl)amino)-6-((4-methylpyridin-2-yl)amino)pyridazine-3-carboxamide], in assay [1], the inhibition at 0.05 µM was determined as 55%, the inhibition at 0.2 µM came out at 82% and the inhibition at 1 µM is 86%.

Consider `COc1c(Nc2cc(Nc3cc(C)ccn3)nnc2C(N)=O)cccc1-c1cc(P(C)(C)=O)n(C2CC2)n1` [Compound A52], for which, in assay [1], the inhibition at 0.2 µM amounted to 9% and the inhibition at 1 µM was determined as 63%.

As to `COc1c(-c2cc(P(C)(C)=O)n(C)n2)ccnc1Nc1cc(Nc2cc(C)ccn2)nnc1C(N)=O` [Compound A55, 4-((4-(5-(dimethylphosphoryl)-1-methyl-1H-pyrazol-3-yl)-3-methoxypyridin-2-yl)amino)-6-((4-methylpyridin-2-yl)amino)pyridazine-3-carboxamide], in assay [1], the inhibition at 0.05 µM is 34%, the inhibition at 0.2 µM was determined as 63% and the inhibition at 1 µM came out at 90%.

For `[2H]C([2H])([2H])n1nc(-c2cc(F)cc(Nc3cc(Nc4cc(C)ccn4)nnc3C(N)=O)c2OC)cc1P(C)(C)=O` [Compound A56], in assay [1], the inhibition at 0.05 µM was found to be 31%, the inhibition at 0.2 µM was found to be 70% and the inhibition at 1 µM was determined as 95%.

Consider `COc1c(Nc2cc(Nc3cc(C)ccn3)nnc2C(N)=O)cncc1-c1cc(P(C)(C)=O)n(C2CC2)n1` [Compound A58], for which the inhibition at 1 µM in assay [1] was 86%.

In the case of `[2H]C([2H])([2H])n1nc(-c2cccc(Nc3cc(Nc4cnccn4)nnc3C(N)=O)c2OC)cc1P(=O)(C1CC1)C1CC1` [Compound A59], in assay [1], the inhibition at 1 µM amounted to 86%.

Regarding `COc1c(-c2cc(P(C)(C)=O)n(C3CC3)n2)ccnc1Nc1cc(Nc2cc(C)ccn2)nnc1C(N)=O` [Compound A60], in assay [1], the inhibition at 1 µM was determined as 66%.

Turning to `COc1c(Nc2cc(NC(=O)C3CC3)ncc2C(N)=O)cccc1-c1ccc(P(C)(C)=O)cc1` [Compound A61, 6-(cyclopropanecarboxamido)-4-((4′-(dimethylphosphoryl)-2-methoxy-[1,1′-biphenyl]-3-yl)amino)nicotinamide], in assay [1], the inhibition at 0.05 µM is 8%, the inhibition at 0.2 µM turned out to be 23% and the inhibition at 1 µM was 59%.

In the case of `COc1c(Nc2cc(NC(=O)C3CC3)ncc2C(N)=O)cccc1-c1ccc(P(C)(C)=O)nc1` [Compound A62], in assay [1], the inhibition at 0.05 µM stood at 3%, the inhibition at 0.2 µM was 5% and the inhibition at 1 µM came out at 56%.

Take `COc1c(Nc2cc(NC(=O)C3CC3)ncc2C(N)=O)cccc1-c1cnc(P(C)(C)=O)cn1` [Compound A63, 6-(cyclopropanecarboxamido)-4-((3-(5-(dimethylphosphoryl)pyrazin-2-yl)-2-methoxyphenyl)amino)nicotinamide]: in assay [1], the inhibition at 0.05 µM came to 33%, the inhibition at 0.2 µM amounted to 43% and the inhibition at 1 µM came out at 75%.

For the molecule `COc1cccnc1Nc1cc(Nc2cccc(-c3cc(P(=O)(C4CC4)C4CC4)n(C)n3)c2OC)c(C(N)=O)nn1` [Compound A65], in assay [1], the inhibition at 0.05 µM turned out to be 36%, the inhibition at 0.2 µM turned out to be 43% and the inhibition at 1 µM was found to be 93%.

In the case of `COc1ccnc(Nc2cc(Nc3cccc(-c4cc(P(=O)(C5CC5)C5CC5)n(C)n4)c3OC)c(C(N)=O)nn2)c1` [Compound A66], in assay [1], the inhibition at 0.05 µM is 59%, the inhibition at 0.2 µM worked out at 82% and the inhibition at 1 µM came out at 96%.

For `COc1cccc(Nc2cc(Nc3cccc(-c4cc(P(=O)(C5CC5)C5CC5)n(C)n4)c3OC)c(C(N)=O)nn2)n1` [Compound A67], in assay [1], the inhibition at 0.05 µM stood at 88%, the inhibition at 0.2 µM turned out to be 95% and the inhibition at 1 µM came out at 95%.

For the molecule `COc1cc(P(=O)(C2CC2)C2CC2)ccc1Nc1cc(Nc2cc(C)ccn2)nnc1C(N)=O` [Compound B1, 4-((4-(dicyclopropylphosphoryl)-2-methoxyphenyl)amino)-6-((4-methylpyridin-2-yl)amino)pyridazine-3-carboxamide], in assay [1], the inhibition at 1 µM was 0%.

Turning to `CCP(=O)(CC)c1ccc(Nc2cc(NC(=O)C3CC3)ncc2C(N)=O)c(OC)c1` [Compound B3, 6-(cyclopropanecarboxamido)-4-((4-(diethylphosphoryl)-2-methoxyphenyl)amino)nicotinamide], the inhibition at 1 µM in assay [1] is 19%.

In the case of `COc1cc(P(=O)(C2CC2)C2CC2)ccc1Nc1cc(Nc2ccccn2)nnc1C(N)=O` [Compound B4], the inhibition at 1 µM in assay [1] amounted to 8%.

For the molecule `COc1cc(P(=O)(C2CC2)C2CC2)ccc1Nc1cc(NC(=O)C2CC2)nnc1C(N)=O` [Compound B5], the inhibition at 1 µM in assay [1] stood at 0%.

For `COc1cc(P(=O)(C2CC2)C2CC2)ccc1Nc1cc(Nc2ccn(C)n2)nnc1C(N)=O` [Compound B7], in assay [1], the inhibition at 1 µM turned out to be 0%.

As to `N#CC[C@H](C1CCCC1)n1cc(-c2ncnc3[nH]ccc23)cn1` [Ruxolitinib, reference compound], the “effect on TPO-induced downstream STAT3 phosphorylation (JAK2/JAK2 pathway)” value in the assay with JAK2/JAK2 pathway is listed as “can inhibit the JAK2/JAK2 pathway”. Also, the “effect on downstream STAT1 phosphorylation induced by IFN-γ (JAK1/JAK2 pathway)” value in the assay on JAK1/JAK2 pathway is “inhibited JAK1/JAK2 pathway in a concentration-dependent manner”.
